Experimental data: patent US20230406840A1, “N-(2-(3-CYANO-2-AZABICYCLO[3.1.0]HEXAN-2-YL)-2-OXOETHYL)QUINOLINE-4-CARBOXAMIDES” (AstraZeneca AB, priority 2022, published 2023)

What was measured:
[1] = biological target: human Fibroblast activation protein alpha (hFAP) (Homo sapiens (Human), UniProt Q12884); assay: hFAP inhibition assay (tight binders); type: biochemical; conditions: tight-binder format, Ala-Pro-AMC 20 μM, 2.5 h incubation; n = 1 or geometric mean (n = 5-10)
Experimental: Data were analyzed in Genedata Screener®.

FAP Human Plasma = FAP Human Plasma (Homo sapiens (Human), UniProt Q12884); assay: FAP plasma inhibition assay, human plasma; type: biochemical; conditions: human plasma dilution 1:40, Ala-Pro-AMC 75 μM; n = 1
Experimental: This assay was adapted from the method described in Example 53 for detection of FAP target engagement enzyme activity in plasma. Plasma (anticoagulant K2EDTA) was used as the enzyme source: Human plasma (Pooled from AZ Biobank) and Mouse plasma (AZ AST Biobank). 384-Well black fluotrack PS plates (Greiner 781076) were used. 20 μL diluted plasma (Human plasma dilution 1:40, Mouse plasma dilution 1:67) in buffer (PBS, 0.1% BSA) was added to 0.6 μL compounds (in DMSO). Compounds were tested using 10 CR, 3-fold dilution series from 500 nM FAC. Two replicates for each assay point were run on the same plate. A fluorescence blank read was taken before substrate addition. Substrate, Ala-Pro-AMC (ARI-3144) stock solution (20 mM in DMSO) was diluted in buffer (PBS, 0.1% BSA) to 150 μM concentration and 20 μL added giving 75 μM FAC. Plates were incubated for 40 min at rt in the dark. The plates were read on a Beckman Paradigm® reader with excitation 360 nm and emission 465 nm. Data were analyzed in Excel (IDBS XLfit Add-In) using a one site dose response model (4-parameter logistic fit). […] Raw data signals were normalized using 1.5% DMSO in diluted plasma as 0% control and 1.5% DMSO in buffer (no plasma) as 100% inhibitor control.

[2] = biological target: Prolyl Oligopeptidase (hPREP) (Homo sapiens (Human), UniProt P48147); assay: hPREP inhibition assay; type: biochemical; conditions: hPREP 0.6 nM, Z-Gly-Pro-amino-methylcoumarin 50 μM; read-out: PREP IC50
In short: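 Recombinant human PREP at 0.6 nM final, with Z-Gly-Pro-AMC substrate at 50 μM final. Buffer: 25 mM Tris HCl pH 7.5, 250 mM NaCl, 0.01% Triton X-100, 5 mM glutathione. Incubated 20 min at rt in the dark; fluorogenic AMC release read.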

Rat Hepatocytes (rHep) = assay: Metabolic stability in rat hepatocytes (rHep); type: in vitro ADME
Experimental: Metabolic stability in rat hepatocytes was measured as described in J Comput Aided Mol Des 2015, 29, 795.

[3] = biological target: FAP enzyme activity in mouse plasma (Mus musculus (Mouse), UniProt P97321); assay: FAP target engagement enzyme activity in mouse plasma after oral dosing; conditions: male C57Bl/6 mice, single oral dose 3 or 10 mg/kg; estimated from plasma exposure vs FAP activity, Imax fixed to 1; read-out: In vivo Mouse IC50
Experimental: The effect of test compound on FAP enzyme activity in mouse plasma was evaluated in an enzymatic assay using the Fibroblast Activation Protein alpha (FAP) specific fluorogenic substrate dipeptide-Coumarin, Ala-Pro-AMC, (ARI-3144). In this assay, FAP cleaves Ala-Pro-AMC to release free AMC which is measured as a fluorescent signal that correlates with enzyme activity.
Male C57Bl/6 mice (Charles River, Germany), 8 weeks of age, were single housed in a temperature-controlled room with a 12-hour light/dark cycle (06:00-18:00 light). The mice had ad libitum access to water and rodent chow diet (R70, Lactamin, Kimstad, Sweden), and were acclimated for 5 days upon arrival. After acclimation, all mice received a single oral dose of test compound (3 or 10 mg/kg). Blood samples for whole blood compound exposure measurements were taken at 0.25, 0.5, 1, 2, 4, 8 and 24 h post oral dosing. Samples were collected in EDTA capillary tubes (20 μL, K2E, REF 19.447) and were transferred to a 96-deep well plate (NUNC, Thermo Discher Scientific) and stored at −20° C. until further analyses were performed. […]
Recombinant human FAP (PB-17-1837, construct PL-17-0278, cd33-FAP (27-757)-6His, Mw85926 Da) was used as a standard for this assay. […] The plates were read on a Beckman Paradigm reader with excitation 360 nm and emission 465 nm. Fluorescence measurements were performed with kinetic read every 5 minutes for 60 min at room temperature. Data were analyzed in Excel (IDBS XLfit Add-In) using a Linear Regression (y=k*x+m) model to prepare a human recombinant FAP standard curve.
On the day of the assay, plasma was diluted (1:2) to 20 μL volume in buffer (PBS, 0.1% BSA) and 7.5 μL was transferred to the assay plate (384-well black, fluotrack PS, Greiner 781076). […] The plates were read on a Beckman Paradigm reader with excitation 360 nm and emission 465 nm. Fluorescence measurements were performed with kinetic read every 5 minutes for 60 minutes at room temperature. As noted above, FAP cleaves Ala-Pro-AMC to release free AMC which is measured as a fluorescent signal. […]

Sequence of human Fibroblast activation protein alpha (hFAP) (Q12884 38-760): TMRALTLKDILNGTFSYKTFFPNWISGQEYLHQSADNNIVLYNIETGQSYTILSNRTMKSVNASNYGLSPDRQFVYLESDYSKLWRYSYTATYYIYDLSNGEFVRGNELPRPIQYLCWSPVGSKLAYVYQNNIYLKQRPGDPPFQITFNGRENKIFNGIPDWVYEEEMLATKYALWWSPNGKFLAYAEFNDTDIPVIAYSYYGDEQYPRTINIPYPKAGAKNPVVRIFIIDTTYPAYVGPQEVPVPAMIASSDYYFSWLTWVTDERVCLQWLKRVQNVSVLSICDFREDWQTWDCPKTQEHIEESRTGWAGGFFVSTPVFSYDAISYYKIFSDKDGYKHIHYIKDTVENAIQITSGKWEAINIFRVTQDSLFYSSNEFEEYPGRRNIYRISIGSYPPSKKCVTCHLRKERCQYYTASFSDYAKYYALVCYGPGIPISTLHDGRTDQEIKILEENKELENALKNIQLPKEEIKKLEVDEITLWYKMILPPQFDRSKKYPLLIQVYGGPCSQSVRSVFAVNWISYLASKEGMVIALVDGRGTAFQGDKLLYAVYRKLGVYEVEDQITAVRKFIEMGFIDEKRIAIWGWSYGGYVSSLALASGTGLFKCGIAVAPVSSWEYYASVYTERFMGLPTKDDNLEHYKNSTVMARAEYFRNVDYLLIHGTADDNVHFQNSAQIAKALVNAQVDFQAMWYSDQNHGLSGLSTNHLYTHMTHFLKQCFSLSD
Sequence of FAP Human Plasma (Q12884 24-760 limits assumed): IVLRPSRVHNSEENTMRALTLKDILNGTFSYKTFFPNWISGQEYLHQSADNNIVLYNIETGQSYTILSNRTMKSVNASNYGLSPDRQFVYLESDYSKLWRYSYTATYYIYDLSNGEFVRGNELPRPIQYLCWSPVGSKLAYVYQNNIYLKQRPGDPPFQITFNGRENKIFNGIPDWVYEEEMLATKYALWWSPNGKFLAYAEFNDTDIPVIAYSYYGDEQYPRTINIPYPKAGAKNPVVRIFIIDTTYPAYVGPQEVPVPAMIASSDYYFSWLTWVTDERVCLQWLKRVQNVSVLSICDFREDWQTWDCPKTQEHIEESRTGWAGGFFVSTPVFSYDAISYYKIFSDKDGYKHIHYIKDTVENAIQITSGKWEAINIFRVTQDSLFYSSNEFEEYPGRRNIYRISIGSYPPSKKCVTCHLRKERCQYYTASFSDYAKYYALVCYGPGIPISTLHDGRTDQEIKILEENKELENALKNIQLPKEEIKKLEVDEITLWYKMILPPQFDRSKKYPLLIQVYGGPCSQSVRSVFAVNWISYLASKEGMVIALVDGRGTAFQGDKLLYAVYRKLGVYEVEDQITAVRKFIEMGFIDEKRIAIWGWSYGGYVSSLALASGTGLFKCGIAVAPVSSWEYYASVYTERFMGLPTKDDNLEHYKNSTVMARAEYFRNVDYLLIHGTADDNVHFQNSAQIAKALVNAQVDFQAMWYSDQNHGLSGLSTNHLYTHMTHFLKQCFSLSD
Sequence of FAP enzyme activity in mouse plasma (P97321 24-761 limits assumed): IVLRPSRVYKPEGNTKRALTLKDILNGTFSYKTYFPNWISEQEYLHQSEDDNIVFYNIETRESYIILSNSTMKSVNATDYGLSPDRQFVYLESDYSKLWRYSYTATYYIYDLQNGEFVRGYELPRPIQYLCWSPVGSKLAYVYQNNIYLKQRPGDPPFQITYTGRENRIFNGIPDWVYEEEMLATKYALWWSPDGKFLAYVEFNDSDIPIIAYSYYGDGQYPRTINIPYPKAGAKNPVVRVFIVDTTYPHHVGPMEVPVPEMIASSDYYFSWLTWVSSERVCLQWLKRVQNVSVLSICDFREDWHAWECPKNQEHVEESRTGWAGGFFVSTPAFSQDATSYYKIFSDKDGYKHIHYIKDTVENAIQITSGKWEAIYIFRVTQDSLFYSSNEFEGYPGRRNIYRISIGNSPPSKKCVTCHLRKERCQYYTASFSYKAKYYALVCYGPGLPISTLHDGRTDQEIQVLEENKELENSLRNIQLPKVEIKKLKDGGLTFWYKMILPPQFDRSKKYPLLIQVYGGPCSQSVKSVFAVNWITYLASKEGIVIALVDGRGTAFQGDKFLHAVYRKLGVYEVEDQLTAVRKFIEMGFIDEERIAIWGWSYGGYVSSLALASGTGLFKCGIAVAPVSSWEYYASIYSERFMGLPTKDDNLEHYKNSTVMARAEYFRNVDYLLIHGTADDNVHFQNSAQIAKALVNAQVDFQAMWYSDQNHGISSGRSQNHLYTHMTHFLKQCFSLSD
Sequence of Prolyl Oligopeptidase (hPREP) (P48147 whole entry): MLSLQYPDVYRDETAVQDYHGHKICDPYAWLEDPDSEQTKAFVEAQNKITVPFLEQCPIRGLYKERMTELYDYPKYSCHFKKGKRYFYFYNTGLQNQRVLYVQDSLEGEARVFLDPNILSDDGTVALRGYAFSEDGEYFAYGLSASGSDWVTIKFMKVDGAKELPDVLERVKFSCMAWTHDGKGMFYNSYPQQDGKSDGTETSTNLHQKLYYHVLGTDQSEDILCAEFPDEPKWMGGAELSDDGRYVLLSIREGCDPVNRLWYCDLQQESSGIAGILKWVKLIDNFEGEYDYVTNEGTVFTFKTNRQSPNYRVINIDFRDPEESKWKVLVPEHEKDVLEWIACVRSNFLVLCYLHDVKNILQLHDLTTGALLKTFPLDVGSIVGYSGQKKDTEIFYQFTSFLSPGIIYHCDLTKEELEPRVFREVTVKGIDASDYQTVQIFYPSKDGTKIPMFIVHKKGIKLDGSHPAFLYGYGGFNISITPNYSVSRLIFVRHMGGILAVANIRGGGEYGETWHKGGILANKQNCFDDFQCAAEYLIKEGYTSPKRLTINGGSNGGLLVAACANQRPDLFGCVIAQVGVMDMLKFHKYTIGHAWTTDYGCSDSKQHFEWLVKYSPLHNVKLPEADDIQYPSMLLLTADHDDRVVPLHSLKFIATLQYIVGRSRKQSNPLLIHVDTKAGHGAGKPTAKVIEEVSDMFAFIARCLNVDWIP

IC50 [1] [nM]	IC50 (FAP Human Plasma) [nM]	IC50 [2] [nM]	rHeps CLint (Rat Hepatocytes (rHep)) [μL/min/1E6]	IC50 [3] [nM]	SMILES
0.48	1.6	31000	<2	3	Cc1ccc2c(C(=O)NCC(=O)N3[C@H](C#N)C[C@@H]4C[C@@H]43)ccnc2c1 [Example 20, N-(2-((1S,3S,5S)-3-Cyano-2-azabicyclo[3.1.0]hexan-2-yl)-2-oxoethyl)-7-methylquinoline-4-carboxamide]
0.15	4.1	> 50000	2.6	36	N#C[C@@H]1C[C@@H]2C[C@@H]2N1C(=O)CNC(=O)c1ccnc2cc(C3(C#N)CC3)ccc12 [Example 40, N-(2-((1S,3S,5S)-3-Cyano-2-azabicyclo[3.1.0]hexan-2-yl)-2-oxoethyl)-7-(1-cyanocyclopropyl)quinoline-4-carboxamide]
